Reference: patent publication EP1800684A1, “Novel alkyl phospholipid derivatives and uses thereof” (Zentaris GmbH, priority 2005, dated 2007)
≈ marks a conversion by molar mass, not a printed value.

Legend:
Format in all cases: cell-based
[1] = tested on: RKOp21 (human colon adenocarcinoma) cells; assay: XTT cytotoxicity assay, RKOp21 cells; conditions: 48 h, 2 days of continuous drug exposure
Method: Human tumor cell lines KB/HeLa (ATCC CCL17, human cervix carcinoma), PC3 (ATCC CRL1435, human prostate carcinoma) and RKOp21 (human colon adenocarcinoma) cells were used in an automated XTT screening assay for the assessment of cytotoxicity.
The XTT assay quantifies cellular metabolic activity which correlates with cell viability and cell number. Test compounds (selected compounds of the invention and known substances as controls) are dissolved in culture medium at 600µM and added to the tumor cells in 10 different concentrations in a semi-logarithmic fashion starting from 100 µM as highest concentration.
48h later cellular metabolic activity of cells treated with test compounds is quantified by measurement of the absorbance at 490nm (conversion of XTT dye) in comparison to untreated control cells (100% viability).
KB/HeLa and PC3 cells were cultivated in RPMI medium supplemented with 10% heat inactivated fetal calf serum, 2 mM glutamine, 100 U/ml penicillin, and 100 µg/ml streptomycin. RKOp21 cells were grown in DMEM supplemented with 10% heat inactivated fetal calf serum, 2 mM glutamine, 100 U/ml penicillin, and 100 µg/ml streptomycin. All cells were cultured at 37°C in 5% CO2 humidified air.
On the first day of the experiment cells were harvested from exponential phase cultures by trypsination, counted and plated into 96 well flat-bottom micro titer plates depending on the cell line as listed below:
After a 24h recovery to allow the cells to resume exponential growth, the test compounds were diluted immediately prior to use and transferred in 25µl volume to the wells.
Following 2 days of continuous drug exposure 50µl of freshly prepared XTT-PMS solution (2% […] PMS in PBS + 98% 1 mg/ml XTT in RPMI 1640 without phenol red) was added to the wells. To measure the proportion of living cells, the cells were incubated for 3 h with XTT-PMS reagent at 37°C, 5% CO2, humidified atmosphere allowing to form the formazan salt. The amount of soluble formazan salt produced by cellular reduction of XTT is quantified by measuring the absorbance at 490nm using the Biomek® 2000 ELISA plate reader.
%-inhibition (cytotoxicity) of each test compound was calculated in relation to untreated control cells. Inhibition curves were generated and IC50 values calculated by using GraphPad Prism.

[2] = tested on: Candida albicans (ATCC 10231); assay: Anti-fungal susceptibility test (microdilution), fungus A; conditions: Candida albicans, ATCC10231, no visible growth after 48 hours at 35° C, read-out: MIC
Method: (§1) The antifungal activities of the test compounds (compounds of the invention and known prior art compounds) were measured according to standard microdilution methods (Cryptococcus/Aspergillus: Ghannoum et al., Journal of Clinical Microbiology 1992, 30 (11): 2881-2886; Candida: Reference method for broth dilution susceptibility testing of yeast: proposed standard, NCCLS document M27-P, National Committee for Clinical Laboratory Standards 1992, Villanova, Pa).
(§2) A serial dilution series starting from 64 µg/mL test compound per well down to 0.125 µg/mL test compound per well was applied for each test compound on each fungus. The MIC of each compound was defined as the concentration which produces no visible growth after 48 hours (Candida) and 72 hours (Cryptococcus, Aspergillus) of culture at 35° C.
(§3) The following fungi were assessed: • A) Candida albicans (ATCC 10231) • B) Candida albicans (ATCC 90028) • C) Candida albicans (strain TS3, Shrikantha et al., Journal of Bacteriology 2000, 182(6):1580-1591) • D) Candida parapsilosis (ATCC 22019) • E) Cryptocoocus neoformans (ATCC 90112) • F) Cryptocoocus neoformans (strain H99; Ganendren et al., Antimicrobial Agents and Chemotherapy, 2004, 48(5):1561-1569) • G) Cryptocoocus gattii (ATCC 32608) • H) Aspergillus fumigatus (ATCC 204305) • I) Aspergillus fumigatus (strain 322-384)

[3] = tested on: Candida albicans (strain TS3); assay: Anti-fungal susceptibility test (microdilution), fungus C; conditions: Candida albicans, no visible growth after 48 hours at 35° C, read-out: MIC
Method: as §1, §2, §3

[4] = tested on: Candida parapsilosis (ATCC 22019); assay: Anti-fungal susceptibility test (microdilution), fungus D; conditions: ATCC22019, no visible growth after 48 hours at 35° C, read-out: MIC
Method: as §1, §2, §3

[5] = tested on: Cryptocoocus neoformans (strain H99); assay: Anti-fungal susceptibility test (microdilution), fungus F; conditions: fungus F; no visible growth after 72 hours at 35° C; read-out: MIC
Method: as §1, §2, §3

[6] = tested on: Trypanosoma cruzi (Tulahuan-LACZ amstigotes in PEM); assay: In vitro drug activity assay, protozoon A (amastigotes in murine peritoneal macrophages, CPRG readout); conditions: infected macrophages exposed for 3 days
Method: Murine (CD1) peritoneal macrophages were harvested 24 hours after starch induction and dispensed into 96-well plates at a concentration of 4 x 10^5 mL. After 24 hours, the cells were infected with Trypanosoma cruzi Tulahuan LAC-Z amastigotes (grown and cultured according to Buckner et al., Infection and Immunity 1999, 67(1): 403-409). 24 hours later, the infected cells were exposed to the test compounds (compounds of the invention as well as known prior art compounds) for 3 days and 50 µL of 500 µM CPRG-1% Nonidet P-40 was added to each well. The plates were read after 2 to 5 hours at 570 nm (Buckner et al., Antimicrobial Agents and Chemotherapy 1996, 40(11): 2592-2597). ED50 values were calculated with Msxlfit (IDBS).
(§4) The following protozoa were assessed: • A) Trypanosoma cruzi (Tulahuan-LACZ amstigotes in PEM, Lorente SO et al., Antimicrobial agents and chemotherapy 2004, 48(8): 2937-2950; Buckner et al., Infection and Immunity 1999, 67(1): 403-409; Buckner et al., Antimicrobial Agents and Chemotherapy 1996, 40(11): 2592-2597) • B) Trypanosoma brucei rhodesiense (strain STIB900, Lorente SO et al., Antimicrobial agents and chemotherapy 2004, 48(8): 2937-2950; Habtemariam S, BMC Pharmacology 2003, 3:6) • C) Plasmodium falciparum (strain K1, Korsinczky M et al., Antimicrobial agents and chemotherapy 2000, 44(8): 2100-2108; Thaitong S and Beale GH, Trans. R. Soc. Trop. Med. Hyg. 1981, 75: 271-273; Trager W and Jensen JB, Science 1976, 193: 673-675) • D) Plasmodium falciparum (strain 3D7, Mu et al., PLoS Biology 2005, 3(10): e335)

[7] = tested on: Plasmodium falciparum (strain 3D7); assay: In vitro drug susceptibility assay, protozoon D (3[H]-hypoxanthine method)
Method: Plasmodium falciparum strain K1 and strain 3D7 parasites were cultured according to Trager W and Jensen JB (Science 1976, 193: 673-675). In vitro drug susceptibility assays with the test compounds were carried out according to Korsinczky M et al. (Antimicrobial agents and chemotherapy 2000, 44(8): 2100-2108) and Fivelman QL et al. (Antimicrobial agents and chemotherapy 2004, 48(11): 4097-4102) using a ^3[H]-hypoxanthine radioisotope method. ED50 values were calculated with Msxlfit (IDBS).
as §4

SMILES: CCCCCCCCCCCCCCCCOP(=O)([O-])OCC[N+]1(C)CCCCC1 [Compound 2, Phosphoric acid 2-(1-methyl-piperidin-1-yl)-ethyl ester hexadecyl ester]
- IC50 [1]: 40.9 µM
- MIC [2]: 1 µg/mL (≈ 2.23 µM)
- MIC [3]: 1.5 µg/mL (≈ 3.35 µM)
- MIC [4]: 2 µg/mL (≈ 4.47 µM)
- MIC [5]: 1 µg/mL (≈ 2.23 µM)
- ED50 (µg/mL) [6]: 0,50 µg/mL
- ED50 (µg/mL) [7]: 2,21 µg/mL
